This is an account of results in patent US6906205B2, “Spiro and dispiro 1,2,4-trioxolane antimalarials” (Medicines for Malaria Venture MMV, priority 2002, dated 2005).

Converted amounts (≈) assume the structure as drawn.

Test [1] has as its system ANKA strain of P. berghei. The experiment in a line: single dose STI in vivo screen in infected mice. The arrangement: species or system Plasmodium berghei. To be noted: for Activity (%) po / Activity (%) sc / Activity (%) SSVpo / Activity (%) 3 mg/kg SSV po / Activity (%) 10 mg/kg SSV po: percent reduction in parasitemia day 3 post-infection; for Activity (%) po / Survival (days) po: single 10 mg/kg po in 3% ethanol and 7% Tween 80; for Activity (%) po / Activity (%) sc / Activity (%) SSVpo: mice; for Activity (%) sc / Survival (days) sc: single 10 mg/kg sc in 3% ethanol and 7% Tween 80; for Survival (days) po / Survival (days) sc / Survival (days) SSVpo: untreated control 5.6 ± 0.3; for Activity (%) SSVpo: single po dose in standard suspending vehicle (SSV); for Survival (days) SSVpo: single po dose in SSV; for Activity (%) 3 mg/kg SSV po: single 3 mg/kg po in SSV; for Activity (%) 10 mg/kg SSV po / Survival (days) 10 mg/kg SSV po: single 10 mg/kg po in SSV. An outline of the steps:
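Groups of 3-5 Moro SPF or NMRI mice infected with the ANKA strain of P. berghei received a single dose of trioxolane on day one post-infection. The compound was given in 3% ethanol and 7% Tween 80 or in SSV (0.5% w/v CMC, 0.5% v/v benzyl alcohol, 0.4% v/v Tween 80, 0.9% w/v sodium chloride in water). Antimalarial activity was scored as percent reduction in parasitemia on day three and as survival time versus untreated controls. Survival to day 30 counted as cure.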

Test [2] has as its system P. falciparum K1 strain (Thailand resistant to chloroquine). Description: semiautomated microdilution assay, [3H]-hypoxanthine incorporation, K1 strain. To be noted: K1 strain, 72 h incubation. The test is classed as cell-based, Plasmodium falciparum. An outline of the steps:
(§1)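 Logit regression analysis was used to estimate IC50 values. Parasites were intraerythrocytic forms from asynchronous stock cultures, and compounds were tested by semiautomated microdilution.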

In test [3] the test system is P. falciparum NF54 strain (sensitive to standard antimalarials). The experiment in a line: semiautomated microdilution assay, [3H]-hypoxanthine incorporation, NF54 strain. To be noted: NF54 strain, 72 h incubation. The test is classed as cell-based, Plasmodium falciparum. An outline of the steps: as §1
(In broth dilution the organism is exposed to a series of concentrations in liquid medium.)

Consider `COc1ccc(S(=O)(=O)N2CCC3(CC2)OOC2(O3)C3CC4CC(C3)CC2C4)cc1` (stereo not shown) [OZ59], for which, in test [1], the “Activity (%) po” value stood at 51%, the “Activity (%) sc” value turned out to be 99.95%, the “Survival (days) po” value is given as 6.0 days and the “Survival (days) sc” value is 10.0 days. In test [2], the “IC50 (ng/ml) K1” value was 1.4 ng/mL (≈ 3.21 nM). Further, in test [3], the “IC50 (ng/ml) NF54” value stood at 1.3 ng/mL (≈ 2.98 nM).
`O=C(CN1C(=O)c2ccccc2C1=O)N1CCC2(CC1)OOC1(O2)C2CC3CC(C2)CC1C3` (stereo not shown) [OZ93]: in test [1], the “Activity (%) po” value was 57%, the “Activity (%) sc” value is given as 100%, the “Activity (%) SSVpo” value came out at 3% and the “Survival (days) po” value stood at 6.7 days. In test [1], the “Survival (days) sc” value is recorded as 13.3 days and the “Survival (days) SSVpo” value is on record as 6.0 days. In addition, the “IC50 (ng/ml) K1” value in test [2] turned out to be 3.3 ng/mL (≈ 7.29 nM). The “IC50 (ng/ml) NF54” value in test [3] stood at 0.92 ng/mL (≈ 2.03 nM).
Regarding `O=C1c2ccccc2C(=O)N1N=C1CCC2(CC1)OOC1(O2)C2CC3CC(C2)CC1C3` (stereo not shown) [OZ38], in test [1], the “Activity (%) po” value is listed as 83%, the “Activity (%) sc” value worked out at 99.98%, the “Activity (%) SSVpo” value was 15% and the “Survival (days) po” value was found to be 6.7 days. In addition, in test [1], the “Survival (days) sc” value is 25.3 days and the “Survival (days) SSVpo” value is listed as 5.0 days. For the same compound, in test [2], the “IC50 (ng/ml) K1” value was determined as 0.86 ng/mL (≈ 2.04 nM). The “IC50 (ng/ml) NF54” value in test [3] turned out to be 1.3 ng/mL (≈ 3.08 nM).
For the compound `O=S(=O)(Cc1ccccc1)N1CCC2(CC1)OOC1(O2)C2CC3CC(C2)CC1C3` (stereo not shown) [OZ131], in test [1], the “Activity (%) po” value was 21%, the “Activity (%) sc” value is recorded as 90%, the “Activity (%) SSVpo” value is on record as 41% and the “Survival (days) po” value came to 5.7 days. Also, in test [1], the “Survival (days) sc” value amounted to 8.0 days and the “Survival (days) SSVpo” value was 6.0 days. The “IC50 (ng/ml) K1” value in test [2] worked out at 1.7 ng/mL (≈ 4.05 nM). In addition, the “IC50 (ng/ml) NF54” value in test [3] came to 4.1 ng/mL (≈ 9.77 nM).
Take `Fc1c(F)c(F)c(C2(c3c(F)c(F)c(F)c(F)c3F)OOC3(O2)C2CC4CC(C2)CC3C4)c(F)c1F` (stereo not shown) [OZ45]: in test [1], the “Activity (%) po” value worked out at 15%, the “Activity (%) sc” value came out at 16%, the “Survival (days) po” value came to 6.0 days and the “Survival (days) sc” value is 5.0 days. Moreover, in test [2], the “IC50 (ng/ml) K1” value came to 17 ng/mL (≈ 32.2 nM). The “IC50 (ng/ml) NF54” value in test [3] is 27 ng/mL (≈ 51.1 nM).
As for `O=C(OCCn1ccnc1)C1CCC2(CC1)OOC1(O2)C2CC3CC(C2)CC1C3` (stereo not shown) [OZ182], in test [1], the “Activity (%) po” value is on record as 91%, the “Activity (%) sc” value was determined as 95%, the “Activity (%) SSVpo” value came out at 96% and the “Survival (days) po” value was found to be 8.0 days. Also, in test [1], the “Survival (days) sc” value amounted to 7.7 days and the “Survival (days) SSVpo” value is 7.3 days. Further, in test [2], the “IC50 (ng/ml) K1” value was found to be 4.5 ng/mL (≈ 11.2 nM). In test [3], the “IC50 (ng/ml) NF54” value was 5.5 ng/mL (≈ 13.7 nM).
Take `O=C(C[C@H]1CC[C@]2(CC1)OO[C@]1(O2)C2CC3CC(C2)CC1C3)NCc1ccccn1` [OZ295]: in test [1], the “Activity (%) 3 mg/kg SSV po” value amounted to 35%, the “Activity (%) 10 mg/kg SSV po” value came out at 47% and the “Survival (days) 10 mg/kg SSV po” value turned out to be 7.0 days. Moreover, the “IC50 (ng/ml) K1” value in test [2] was determined as 0.44 ng/mL (≈ 1.07 nM). Besides, in test [3], the “IC50 (ng/ml) NF54” value came out at 0.75 ng/mL (≈ 1.82 nM).
Turning to `O=C1CNC(=O)N1C[C@H]1CC[C@]2(CC1)OOC1(O2)C2CC3CC(C2)CC1C3` (stereo partly shown) [OZ206], in test [1], the “Activity (%) po” value is listed as 93%, the “Activity (%) sc” value worked out at 91%, the “Activity (%) SSVpo” value is on record as 92% and the “Survival (days) po” value was determined as 8.0 days. Also, in test [1], the “Survival (days) sc” value is listed as 9.7 days and the “Survival (days) SSVpo” value is 8.7 days. Besides, in test [2], the “IC50 (ng/ml) K1” value was 1.0 ng/mL (≈ 2.66 nM). Further, the “IC50 (ng/ml) NF54” value in test [3] worked out at 2.7 ng/mL (≈ 7.17 nM).
Regarding `O=C(NCCO)[C@H]1CC[C@]2(CC1)OOC1(O2)C2CC3CC(C2)CC1C3` (stereo partly shown) [OZ155], in test [1], the “Activity (%) po” value is 53%, the “Activity (%) sc” value amounted to 73%, the “Activity (%) SSVpo” value turned out to be 53% and the “Survival (days) po” value is 6.3 days. In test [1], the “Survival (days) sc” value was found to be 8.3 days and the “Survival (days) SSVpo” value worked out at 7.0 days. Moreover, the “IC50 (ng/ml) K1” value in test [2] is 12 ng/mL (≈ 34.1 nM). Besides, in test [3], the “IC50 (ng/ml) NF54” value is above 10 ng/mL.
For `COC(=O)c1ccc(C[C@H]2CC[C@]3(CC2)OOC2(O3)C3CC4CC(C3)CC2C4)cc1` (stereo partly shown) [OZ204], in test [1], the “Activity (%) po” value is 0/0/0%, the “Activity (%) sc” value is on record as 0/0/0%, the “Activity (%) SSVpo” value was 0/0/0% and the “Survival (days) po” value came to 6.0 days. Moreover, in test [1], the “Survival (days) sc” value turned out to be 6.0 days and the “Survival (days) SSVpo” value was 6.3 days. The “IC50 (ng/ml) K1” value in test [2] was >10/>10 ng/ml. Further, the “IC50 (ng/ml) NF54” value in test [3] is listed as >10/>10 ng/ml.
Turning to `O=C(NC[C@H]1CC[C@]2(CC1)OOC1(O2)C2CC3CC(C2)CC1C3)c1ccncc1` (stereo partly shown) [OZ255], in test [1], the “Activity (%) po” value is listed as 99.61%, the “Activity (%) sc” value was 99.92%, the “Activity (%) SSVpo” value came out at 99.54% and the “Survival (days) po” value amounted to 9.0 days. Also, in test [1], the “Survival (days) sc” value was 10.0 days and the “Survival (days) SSVpo” value is given as 8.7 days. Besides, the “IC50 (ng/ml) K1” value in test [2] is 2.2 ng/mL (≈ 5.52 nM). The “IC50 (ng/ml) NF54” value in test [3] stood at 1.1 ng/mL (≈ 2.76 nM).
Take `O=C(OC[C@H]1CC[C@]2(CC1)OOC1(O2)C2CC3CC(C2)CC1C3)n1ccnc1` (stereo partly shown) [OZ141]: in test [1], the “Activity (%) po” value came to 98%, the “Activity (%) sc” value is 99.89%, the “Activity (%) SSVpo” value was determined as 97% and the “Survival (days) po” value is 8.0 days. Also, in test [1], the “Survival (days) sc” value is 8.7 days and the “Survival (days) SSVpo” value stood at 8.0 days. Besides, the “IC50 (ng/ml) K1” value in test [2] is 1.7 ng/mL (≈ 4.38 nM). Moreover, in test [3], the “IC50 (ng/ml) NF54” value came out at 1.9 ng/mL (≈ 4.89 nM).
As to `O=C(NC[C@H]1CC[C@]2(CC1)OOC1(O2)C2CC3CC(C2)CC1C3)c1c[nH]cn1` (stereo partly shown) [OZ263], in test [1], the “Activity (%) po” value stood at 99.53%, the “Activity (%) sc” value was found to be 99.92%, the “Activity (%) SSVpo” value was determined as 99.45% and the “Survival (days) po” value came to 13.0 days. In addition, in test [1], the “Survival (days) sc” value was 11.0 days and the “Survival (days) SSVpo” value was 13.3 days. The “IC50 (ng/ml) K1” value in test [2] came to 0.84 ng/mL (≈ 2.17 nM). Besides, the “IC50 (ng/ml) NF54” value in test [3] is 1.1 ng/mL (≈ 2.84 nM).
On to `O=S(=O)(c1cccc2cccnc12)N1CCC2(CC1)OOC1(O2)C2CC3CC(C2)CC1C3` (stereo not shown) [OZ114], for which, in test [1], the “Activity (%) po” value is 0%, the “Activity (%) sc” value worked out at 99.64%, the “Activity (%) SSVpo” value is given as 0% and the “Survival (days) po” value was found to be 5.7 days. Moreover, in test [1], the “Survival (days) sc” value came to 8.7 days and the “Survival (days) SSVpo” value turned out to be 6.0 days. Moreover, the “IC50 (ng/ml) K1” value in test [2] came out at 3.7 ng/mL (≈ 8.1 nM). Moreover, the “IC50 (ng/ml) NF54” value in test [3] came out at 2.2 ng/mL (≈ 4.82 nM).
`c1ccc(CNC[C@H]2CC[C@]3(CC2)OO[C@]2(O3)C3CC4CC(C3)CC2C4)nc1` [OZ292]: in test [1], the “Activity (%) 3 mg/kg SSV po” value turned out to be 46%, the “Activity (%) 10 mg/kg SSV po” value was 74% and the “Survival (days) 10 mg/kg SSV po” value was 7.0 days. Also, in test [2], the “IC50 (ng/ml) K1” value was 0.19 ng/mL (≈ 0.494 nM). In addition, the “IC50 (ng/ml) NF54” value in test [3] was determined as 0.26 ng/mL (≈ 0.676 nM).
As to `NC1(C(=O)NC[C@H]2CC[C@]3(CC2)OO[C@]2(O3)C3CC4CC(C3)CC2C4)CCCC1` [OZ317], in test [1], the “Activity (%) 3 mg/kg SSV po” value is 99.20%, the “Activity (%) 10 mg/kg SSV po” value worked out at 99.92% and the “Survival (days) 10 mg/kg SSV po” value was found to be 9.8 days. Also, the “IC50 (ng/ml) K1” value in test [2] stood at 0.33 ng/mL (≈ 0.816 nM). In test [3], the “IC50 (ng/ml) NF54” value came out at 0.36 ng/mL (≈ 0.89 nM).
